Where two headings read alike, the source gives them in different places.
Assays:
[1] = Effect on proteinuria in human: Urinary Albumin Excretion (UAE) in Type 2 diabetes patients (Example 2); type: in vivo; details: 8 weeks, bindarit 600 mg twice a day, irbesartan 300 mg once a day
Excerpt: Irbesartan is a well known angiotensin receptor blockers (ARB). The treatment lasted 8 weeks.

MCP-1 [2] = experiment: Effect on LPS-induced MCP-1 plasma levels in mice (Example 1, ELISA); details: calculated versus vehicle group; same doses and schedule as E1
Description: MCP-1 plasma levels were measured by commercially available ELISA kit. Drugs were intraperitoneally (ip) administered 30 minutes before LPS injection (50 μg/mouse, ip) to groups of eight mice. […] The percent reduction was calculated versus the vehicle group.

MCP-1 [3] = details: calculated versus vehicle group; same doses and schedule as E6
Description: MCP-1 plasma levels were measured by commercially available ELISA kit.
Drugs were intraperitoneally (ip) administered 30 minutes before LPS injection (50 μg/mouse, ip) to groups of six mice. At 3 hours following
LPS injection, mice were anesthetized and blood was withdrawn by intracardiac puncture in order to obtain plasma (heparinized samples) to be used to measure MCP-1 levels.
The percent reduction was calculated versus the vehicle group.

Row | Structure (SMILES) | MCP-1 plasma level % reduction (MCP-1 [2]) [%] | also measured
1 | CCCCC1=NC2(CCCC2)C(=O)N1Cc1ccc(-c2ccccc2-c2nnn[nH]2)cc1 [Placebo + Irbesartan, irbesartan] |  | Patient percentage with a UAE reduction equal to or higher than 25% with respect to basal value [1]: 27.5%
2 | CCC(C)(C)C(=O)O[C@H]1C[C@@H](C)C=C2C=C[C@H](C)[C@H](CC[C@@H]3C[C@@H](O)CC(=O)O3)[C@H]21 [Simvastatin, simvastatin] | 7 | 
3 | CCOC(=O)[C@H](CCc1ccccc1)N[C@@H](C)C(=O)N1[C@H](C(=O)O)C[C@@H]2CCC[C@@H]21 [Ramipril, ramipril] | 30 | 
4 | CCCCc1nc(Cl)c(CO)n1Cc1ccc(-c2ccccc2-c2nn[nH]n2)cc1 [Losartan, losartan] | 13 | 
5 | COc1ccc(CCN(C)CCCC(C#N)(c2ccc(OC)c(OC)c2)C(C)C)cc1OC (centres unmarked) [Verapamil, verapamil] |  | MCP-1 plasma level % reduction (MCP-1 [3]): 26%

Reference: patent US9492542B2, “Pharmaceutical composition for the treatment of MCP-1 mediated inflammatory diseases” (priority 2009, dated 2016)
